Assay results taken from ChEMBL document CHEMBL1909046, “DrugMatrix in vitro pharmacology data”.

Assays:
[1] = target: Protein kinase C alpha type (Homo sapiens, UniProt P17252); assay type: cell-based; conditions: sf9;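 further: inhibition of PKCalpha kinase activity measured in an enzyme assay with histone as the phosphorylation substrate; in other assays of this panel Not Active means under 50% inhibition at 10 µM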
[2] = DRUGMATRIX: Calcium Channel Type L, Phenylalkylamine radioligand binding (ligand: [3H] (-)-Desmethoxyverapamil (D-888)); assay type: cell membranes, Rattus norvegicus, Wistar, Brain, Membrane; conditions: Not Active = under 50% inhibition at 10 µM
Endothelin-1 receptor = target: T1, Endothelin-1 receptor (Homo sapiens, UniProt P25101); assay type: cell membranes, Membrane; conditions: cho-k1; further: in other assays of this panel Not Active means under 50% inhibition at 10 µM
T1 sequence (P25101 whole entry): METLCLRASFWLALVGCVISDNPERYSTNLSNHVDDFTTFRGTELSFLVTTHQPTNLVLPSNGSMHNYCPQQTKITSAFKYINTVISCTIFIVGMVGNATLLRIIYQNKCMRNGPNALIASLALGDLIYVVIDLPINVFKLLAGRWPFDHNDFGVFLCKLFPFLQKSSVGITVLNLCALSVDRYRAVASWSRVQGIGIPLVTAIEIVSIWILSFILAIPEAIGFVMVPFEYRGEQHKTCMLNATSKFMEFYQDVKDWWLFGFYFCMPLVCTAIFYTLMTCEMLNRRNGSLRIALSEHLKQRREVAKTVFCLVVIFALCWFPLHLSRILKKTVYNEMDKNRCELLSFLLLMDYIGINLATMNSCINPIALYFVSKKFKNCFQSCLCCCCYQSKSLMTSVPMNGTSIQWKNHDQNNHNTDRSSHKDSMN

[3] = target: T2, Alpha-1A adrenergic receptor (Rattus norvegicus, UniProt P43140); experiment: DRUGMATRIX: Alpha-1A adrenergic receptor radioligand binding (ligand: prazosin); assay type: cell membranes, Wistar, Submaxillary gland, Membrane; conditions: Not Active = under 50% inhibition at 10 µM
T2 sequence (P43140 whole entry): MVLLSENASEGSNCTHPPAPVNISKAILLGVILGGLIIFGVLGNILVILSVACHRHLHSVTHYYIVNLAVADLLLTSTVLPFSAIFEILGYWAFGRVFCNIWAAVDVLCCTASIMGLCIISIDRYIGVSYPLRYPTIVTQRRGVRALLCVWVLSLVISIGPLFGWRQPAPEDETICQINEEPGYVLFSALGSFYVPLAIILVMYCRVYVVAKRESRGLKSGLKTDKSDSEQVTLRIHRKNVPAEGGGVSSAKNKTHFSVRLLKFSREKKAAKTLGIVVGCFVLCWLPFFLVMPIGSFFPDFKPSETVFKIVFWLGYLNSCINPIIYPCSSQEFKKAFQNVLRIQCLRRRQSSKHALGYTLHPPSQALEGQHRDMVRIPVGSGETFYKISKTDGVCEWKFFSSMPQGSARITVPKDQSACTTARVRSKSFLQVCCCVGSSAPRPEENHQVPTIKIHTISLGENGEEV

[4] = target: T3, Alpha-2A adrenergic receptor (Homo sapiens, UniProt P08913); assay type: cell membranes, Sf9, Membrane; conditions: for Ki: read-out: Ki; on all read-outs here: in other assays of this panel Not Active means under 50% inhibition at 10 µM
T3 sequence (P08913 whole entry): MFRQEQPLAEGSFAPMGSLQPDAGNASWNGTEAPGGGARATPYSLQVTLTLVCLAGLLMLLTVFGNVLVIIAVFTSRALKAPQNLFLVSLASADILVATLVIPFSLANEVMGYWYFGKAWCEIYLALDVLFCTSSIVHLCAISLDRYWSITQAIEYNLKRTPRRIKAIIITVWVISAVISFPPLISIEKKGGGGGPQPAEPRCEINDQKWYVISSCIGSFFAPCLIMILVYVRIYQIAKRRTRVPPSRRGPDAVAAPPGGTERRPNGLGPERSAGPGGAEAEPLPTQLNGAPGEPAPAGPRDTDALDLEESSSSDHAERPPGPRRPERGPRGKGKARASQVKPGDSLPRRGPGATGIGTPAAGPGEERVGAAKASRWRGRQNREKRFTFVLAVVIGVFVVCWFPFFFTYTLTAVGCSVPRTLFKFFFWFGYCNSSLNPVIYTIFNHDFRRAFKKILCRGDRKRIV

[5] = DRUGMATRIX: GABAA, Flunitrazepam, Central radioligand binding (ligand: [3H] Flunitrazepam); assay type: cell membranes, Rattus norvegicus, Wistar, Brain, Membrane; conditions: Not Active = under 50% inhibition at 10 µM

Compound | IC50 [1] | IC50 [2] | Ki [2] | IC50 (Endothelin-1 receptor) | IC50 [3] | IC50 ([4]; sf9) | IC50 [5] | Ki [5] | IC50 ([4]; read-out: IC50) [nM] | Ki [4] [nM] | IC50 ([5]; read-out: IC50) [nM] | Ki ([5]; read-out: Ki) [nM] | IC50 ([2]; read-out: IC50) [nM] | Ki ([2]; read-out: Ki) [nM]
C[C@H]1C[C@H]2[C@@H]3CCC4=CC(=O)C=C[C@]4(C)[C@@]3(F)[C@@H](O)C[C@]2(C)[C@@]1(O)C(=O)CO [BETAMETHASONE] | Not Active | Not Active | Not Active | Not Active | Not Active | Not Active | Not Active | Not Active |  |  |  |  |  | 
CC(C)NCC(O)COc1ccc(CC(N)=O)cc1 (stereo not drawn) [ATENOLOL] | Not Active | Not Active | Not Active | Not Active | Not Active | Not Active | Not Active | Not Active |  |  |  |  |  | 
O=C1c2ccccc2C(=O)C1c1ccccc1 [PHENINDIONE] | Not Active | Not Active | Not Active | Not Active | Not Active | Not Active | Not Active | Not Active |  |  |  |  |  | 
CCCCCCNC(=O)n1cc(F)c(=O)[nH]c1=O [CARMOFUR] | Not Active | Not Active | Not Active | Not Active | Not Active | Not Active | Not Active | Not Active |  |  |  |  |  | 
O=c1[nH]cnc2c1ncn2[C@H]1CC[C@@H](CO)O1 [DIDANOSINE] | Not Active | Not Active | Not Active | Not Active | Not Active | Not Active | Not Active | Not Active |  |  |  |  |  | 
CC(=O)Nc1ccc2c(c1)Cc1ccccc1-2 [2-ACETYLAMINOFLUORENE] | Not Active | Not Active | Not Active | Not Active | Not Active |  | Not Active | Not Active | 21100 | 7900 |  |  |  | 
CC(C)(c1ccc(O)cc1)c1ccc(O)cc1 [BISPHENOL A] | Not Active | Not Active | Not Active | Not Active | Not Active | Not Active | Not Active | Not Active |  |  |  |  |  | 
CO[C@H]1O[C@@H]2O[C@@]3(C)CC[C@H]4[C@H](C)CC[C@@H]([C@H]1C)[C@@]24OO3 | Not Active | Not Active | Not Active | Not Active | Not Active | Not Active | Not Active | Not Active |  |  |  |  |  | 
C#C[C@]1(O)CC[C@H]2[C@@H]3CCC4=CC(=O)CC[C@@H]4[C@H]3CC[C@@]21C [NORETHINDRONE] | Not Active | Not Active | Not Active | Not Active | Not Active | Not Active |  |  |  |  | 13300 | 10900 |  | 
CN(Cc1cc(Br)cc(Br)c1N)C1CCCCC1 [BROMHEXINE] | Not Active | Not Active | Not Active | Not Active | Not Active | Not Active | Not Active | Not Active |  |  |  |  |  | 
CC12CCC(CC1=O)C2(C)C (stereo not drawn) [CAMPHOR] | Not Active | Not Active | Not Active | Not Active | Not Active | Not Active | Not Active | Not Active |  |  |  |  |  | 
C[C@@H]1[C@H](O)[C@@H](C)/C=C/C=C/C=C/C=C/C=C/C=C/C=C/[C@H](O[C@@H]2O[C@H](C)[C@@H](O)[C@H](N)[C@@H]2O)C[C@@H]2O[C@](O)(C[C@@H](O)C[C@@H](O)[C@H](O)CC[C@@H](O)C[C@@H](O)CC(=O)O[C@H]1C)C[C@H](O)[C@H]2C(=O)O [AMPHOTERICIN B] | Not Active | Not Active | Not Active | Not Active | Not Active | Not Active | Not Active | Not Active |  |  |  |  |  | 
Nc1ccc(Cc2ccc(N)cc2)cc1 | Not Active | Not Active | Not Active | Not Active | Not Active | Not Active | Not Active | Not Active |  |  |  |  |  | 
CCN(CCO)CCCC(C)Nc1ccnc2cc(Cl)ccc12 (stereo not drawn) [HYDROXYCHLOROQUINE] | Not Active | Not Active | Not Active | Not Active | Not Active | Not Active | Not Active | Not Active |  |  |  |  |  | 
O=C(O)COC(=O)Cc1ccccc1Nc1c(Cl)cccc1Cl [ACECLOFENAC] | Not Active | Not Active | Not Active | Not Active | Not Active | Not Active | Not Active | Not Active |  |  |  |  |  | 
O=C(O)CCc1nc(-c2ccccc2)c(-c2ccccc2)o1 [OXAPROZIN] | Not Active | Not Active | Not Active | Not Active | Not Active | Not Active | Not Active | Not Active |  |  |  |  |  | 
C=CCN1CC[C@]23c4c5ccc(O)c4O[C@H]2/C(=N/N=C2\CC[C@@]4(O)[C@H]6Cc7ccc(O)c8c7[C@@]4(CCN6CC=C)[C@H]2O8)CC[C@@]3(O)[C@H]1C5 [NALOXONAZINE] | Not Active | Not Active | Not Active | Not Active | Not Active | Not Active | Not Active | Not Active |  |  |  |  |  | 
O=C(O)CO [GLYCOLIC ACID] | Not Active | Not Active | Not Active | Not Active | Not Active | Not Active | Not Active | Not Active |  |  |  |  |  | 
COC(=O)Nc1nc2ccc(Sc3ccccc3)cc2[nH]1 [FENBENDAZOLE] | Not Active | Not Active | Not Active | Not Active | Not Active | Not Active | Not Active | Not Active |  |  |  |  |  | 
CC12CCC(CC1)C(C)(C)O2 [EUCALYPTOL] | Not Active | Not Active | Not Active | Not Active | Not Active | Not Active | Not Active | Not Active |  |  |  |  |  | 
O=C(Nc1ccc(Cl)c(Cl)c1)c1cc(Cl)cc(Cl)c1O [3,3',4',5-TETRACHLOROSALICYLANILIDE] | Not Active | Not Active | Not Active | Not Active | Not Active | Not Active | Not Active | Not Active |  |  |  |  |  | 
Cc1ccnc2c1NC(=O)c1cccnc1N2C1CC1 [NEVIRAPINE] | Not Active | Not Active | Not Active | Not Active | Not Active | Not Active | Not Active | Not Active |  |  |  |  |  | 
CNC[C@H](O)c1ccc(O)c(O)c1 [EPINEPHRINE] | Not Active | Not Active | Not Active | Not Active |  |  | Not Active | Not Active |  |  |  |  |  | 
CC(CN1c2ccccc2Sc2ccccc21)N(C)C (stereo not drawn) [PROMETHAZINE] | Not Active |  |  | Not Active |  |  | Not Active | Not Active |  |  |  |  | 866 | 842
COc1ccccc1OCCNCC(O)COc1cccc2[nH]c3ccccc3c12 (stereo not drawn) [CARVEDILOL] | Not Active |  |  | Not Active |  |  | Not Active | Not Active | 106 | 40 |  |  | 389 | 378
Cc1cc(C(C)(C)C)c(O)c(C)c1CC1=NCCN1 [OXYMETAZOLINE] | Not Active |  |  | Not Active |  |  | Not Active | Not Active |  |  |  |  | 2250 | 2180
